Measurements: PubChem BioAssay (NCI)
Where “and” joins values, the source holds several entries; their conditions need not be identical. Equal values may be shown once.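 Five concentrations, 48 hours, 96-well plates. GI50: concentration for 50% inhibition of growth. At the TGI there is no net growth.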

Tests used:
Assay in all cases: growth of human tumour cells (NCI), 48 h
[1] = tested on: SNB-75 CNS
[2] = tested on: HS 578T breast
[3] = tested on: KM12 colon
[4] = tested on: CCRF-CEM leukemia
[5] = tested on: OVCAR-3 ovarian
[6] = tested on: HCC-2998 colon
[7] = tested on: UO-31 renal

Structure (SMILES) | TGI [1] [µM] | TGI [2] [µM] | TGI [3] | TGI [4] [µM] | TGI [5] | GI50 [6] [µM] | TGI [6] [µM] | GI50 [1] [µM] | GI50 [2] [µM] | GI50 [3] [µM] | GI50 [4] [µM] | GI50 [7] [µM] | TGI [7] [µM] | GI50 [5] [µM]
O=C(O)C(=Cc1ccnc2ccccc12)C(=O)O | > 100 | > 100 | > 100 µM | > 100 | > 100 µM | – | – | – | – | – | – | – | – | –
O=Cc1c(-c2cc(O)ccc2O)nc2sccn12 | > 100 | > 100 | 20.5 µM | 7.21 | 6.47 µM | 17.3 | 33.6 | 36.9 | 35.7 | 5.05 | 0.95 | 1.05 | 2.38 | 1.6
C[C@]12CCC3[C@@H](C[C@@H]4SC(Nc5ccccc5)=N[C@@]45CC(=O)CC[C@]35C)[C@@H]1CCC2=O (some centres not stated) | 72.5 | > 100 | 29.3 µM | > 100 | 50.8 µM | 18.2 | 44.8 | 5.4 | 12 | 8.27 | 2.84 | 5.26 | 19.4 | 4.41
COc1ccc(/C=C/C(=O)c2cc3c(N)c(C(=O)Nc4ccccc4Cl)sc3nc2C)cc1 | 4.32 | 4.56 | > 50 µM | > 50 | 16.3 µM | 8 | > 50 | 1.12 | 0.937 | 3.48 | 10.4 | 1.17 | 3.94 | 2.11
Cc1c(N=Nc2ccc([N+](=O)[O-])cc2)nc2scc(-c3ccccc3)n12 | > 100 | > 100 | > 100 µM | > 73.4 | > 100 µM | – | > 100 | – | – | – | – | – | > 100 | –
OCc1cn(Cc2cccc(Cl)c2)c2ccccc12 | 29 | 33.7 | 33.8 µM | > 69.8 | 1.1 µM | 12 | 28.3 | 7.7 | 9.27 | 16.2 | 11 | 5.01 | 41.4 | 0.128
OCCCCC#Cc1ccccc1C#Cc1ccccc1 | 42.1 | 39.6 | – | – | – | 16.8 | 43.6 | 16 | 15.6 | – | – | 28.4 | > 100 | –
N[C@@H](Cc1c[nH]c2ccccc12)C(=O)NC1CCN(C(=O)c2c[nH]c3ccccc23)CC1 | > 100 | > 100 | > 100 µM | > 100 | > 100 µM | > 100 | > 100 | 37.4 | 71.3 | 84.8 | > 100 | > 100 | > 100 | > 100
COP(=O)(OC)C(NC(c1ccccc1)c1ccccc1)c1ccc2c(c1)OCO2 (configuration not stated) | 67.2 | 59.9 | 81.3 µM | 29.7 | 50.2 µM | 33.5 | > 100 | 30.5 | 27.4 | 30 | 2.26 | 21.8 | 53.9 | 22.1
C1CC[N-]CC1.C1CC[N-]CC1.C1CC[N-]CC1.C1CC[N-]CC1.[Cl][Rh][Cl] | 80.3 | 54.8 | 21.8 µM | 72.4 | 41.3 µM | 8.17 | 30.3 | 6.69 | 3.95 | 7.04 | 3.46 | 34.4 | > 100 | 10.6
CC12CCC3C(CC=C4CC(O)CCC43C)C1C/C(=C\N1CCCC1)C2=O (configuration not stated) | > 100 | > 100 | > 100 µM | > 100 | > 100 µM | > 100 | > 100 | 41.5 | 60.8 | 73.3 | 79.3 | 67.2 | > 100 | 42.6
CC(=O)O[C@H]1C(=O)[C@@]2(C)C(C(OC(=O)c3ccccc3)[C@]3(O)CC(OC(=O)[C@H](OC(=O)CCC(=O)O)C(NC(=O)c4ccccc4)c4ccccc4)C(C)=C1C3(C)C)C1(OC(C)=O)COC1C[C@@H]2OC(=O)CCC(=O)O (some centres not stated) | > 26.8 | – | > 100 µM | – | > 54.2 µM | – | 42.4 | – | – | – | – | – | > 100 | 1.89
N#Cc1c(C(=O)c2ccccc2)cnn1-c1ccccc1 | > 25 | > 25 | > 25 µM | > 25 | > 25 µM | > 25 | > 25 | > 25 | > 25 | > 25 | > 25 | > 25 | > 25 | > 25
O=c1c2ccccc2c2ccccc2c(=O)n1-c1cc2c3ccccc3ccc2c2ccccc12 | > 100 | > 100 | > 100 µM | – | > 100 µM | – | 89.1 | – | – | – | – | – | > 100 | –
CCOP(=O)(OCC)C(NC(c1ccccc1)c1ccccc1)c1ccccc1 (configuration not stated) | 45.3 | 13.5 | 34.6 µM | 58.8 | 18.9 µM | 14.8 | 29.5 | 21.7 | 1.89 | 18.4 | 18.2 | 14.9 | 30.2 | 3.66
CSc1nc2c(c(=O)[nH]1)N=C1c3ccccc3C(=O)C1C(c1ccc(F)cc1)N2 (configuration not stated) | 14.9 | 43.6 | 15.6 µM | > 100 | 12.5 µM | 12.2 | 30.5 | 1.46 | 5.85 | 3.77 | 8.16 | 16.3 | > 100 | 3.38
CCCC[C@H]1C(=O)O[C@H](C)[C@H](NC(=O)c2cccc(NC=O)c2O)C(=O)O[C@@H](C)[C@@H]1OC(=O)CC(C)C | 59.9 | 37.7 | 30.8 µM | 6.29 | 24.6 µM | – | 35.1 | – | – | – | – | – | 33.2 | –
C=C1C(=O)O[C@H]2[C@H]1CC/C(COC(=O)NCc1cc3ccccc3[nH]1)=C\CC[C@@]1(C)O[C@@H]21 | 19.2 | 15.6 | 12.8 µM | 3.36 | 3.52 µM | 2.02 | 3.67 | 3.91 | 2.8 | 3.3 | 0.443 | 1.2 | 2.43 | 1.69
Cc1cn(C2CC(F)C(CO)O2)c(=O)[nH]c1=O (configuration not stated) | – | > 100 | > 100 µM | > 100 | > 100 µM | > 100 | > 100 | – | > 100 | > 100 | > 100 | > 100 | > 100 | > 100
CC(C)(C)N1CCC1C(N)=O (configuration not stated) | > 100 | > 100 | > 100 µM | > 100 | > 100 µM | > 100 | > 100 | > 100 | > 100 | > 100 | > 100 | > 100 | > 100 | > 100
O=c1cc(C(F)(F)F)c2cc3c(cc2o1)NCCC3 | – | 61.9 | > 100 µM | > 100 | > 100 µM | – | > 100 | – | – | – | – | – | > 100 | –
CC(=O)Nc1ccc(/C=C/[N+](=O)[O-])cc1 | 7.64 | 32.6 | 26.7 µM | 7.48 | 10.7 µM | – | – | – | – | – | – | – | 4.58 | –
N#CC(=S)Nc1cccc(Cl)c1 | 75.9 | – | > 100 µM | > 100 | 56.4 µM | – | 83.1 | – | – | – | – | – | – | –
O=C1c2cccc3cc([N+](=O)[O-])cc(c23)C(=O)N1CCNCCNCCNCCN1C(=O)c2cccc3cc([N+](=O)[O-])cc(c23)C1=O | 0.133 | – | 0.668 µM and 4.47 µM | 0.635 | 0.343 µM and 0.94 µM | – | 0.226 | – | – | – | – | – | 2.16 | –
[Cl][Bi]([O]c1ccccn1)[O]c1ccccn1 | > 100 | – | > 100 µM | – | > 100 µM | > 100 | > 100 | > 100 | – | > 100 | – | > 100 | > 100 | > 100
O=C1CCC(Cc2ccc(Cl)cc2Cl)C(=O)N1 (configuration not stated) | > 100 | > 100 | – | > 100 | > 100 µM | – | – | – | – | – | – | – | > 100 | –
Nc1ccccc1C#C/C=C\C#Cc1ccccc1C(F)(F)F | 18.8 | 25.2 | 12.7 µM | > 100 | 1.89 µM | – | – | 0.0869 | 1.26 | 1 | 17.7 | 4.08 | 23.4 | 0.673
CCN(CC)c1ccc(/C=C\c2cc(C)c3cc(C)ccc3n2)cc1 | > 100 | 48.4 | 29.6 µM | – | 12.4 µM | 4.44 | 23.8 | 4.83 | 5.32 | 3.39 | – | 6.97 | > 100 | 3.24
C/C(=N/S(=O)(=O)c1ccc(Cl)c(Cl)c1)OCC(C)(C)C | > 100 | > 100 | > 100 µM | > 100 | > 100 µM | – | – | – | – | – | – | – | > 100 | –
Nc1ccc2c(SCCSc3c4ccccc4nc4cc(N)ccc34)c3ccccc3nc2c1 | > 100 | > 100 | > 100 µM | > 100 | > 100 µM | – | – | – | – | – | – | – | > 100 | –
